Patent publication US20080015198A1, “Substituted pyrazoline compounds, their preparation and use as medicaments” (LABORATORIOS DEL DR.ESTEVE S.A., priority 2004, published 2008)

Legend:
cannabinoid receptors [1] = assay: Mouse tetrad model, agonistic effect; format: in vivo, mice; settings: 5 mg/kg i.v.; for Agonistic effect B: Hypothermia: unit assumed
Text: (§1) Substances with affinity for cannabinoid receptors are known to produce a wide range of pharmacological effects. It is also known that intravenous administration of a substance with affinity for cannabinoid receptors in mice produces analgesia, hypothermia, sedation and catalepsy. Individually, none of these effects can be considered as proof that a tested substance has affinity for cannabinoid-receptors, since all of these effects are common for various classes of centrally active agents. However, substances, which show all of these effects, i.e. substances that are active in this so-called tetrad model are considered to have affinity for the cannabinoid receptors. It has further been shown that cannabinoid receptor antagonists are higly effective in blocking the effects of a cannabinoid agonist in the mouse tetrad model.
(§2) The tetrad model is described, for example, in the publication of A. C. Howlett et al, International Union of Pharmacology XXVII. Classification of Cannabinoid Receptors, Pharmacol Rev 54, 161-202, 2002 and David R. Compton et al., “In-vivo Characterization of a Specific Cannabinoid Receptor Antagonist (SR141716A): Inhibition of Tetrahydrocannbinol-induced Responses and Apparent Agonist Activity”, J. Pharmacol. Exp. Ther. 277 , 2, 586-594, 1996. The corresponding parts of the description are hereby incorporated by reference.
(§3) Male NMRI mice with a weight of 20-30 g (Harlan, Barcelona, Spain) are used in all of the following experiments.
(§4) Before testing in the behavioral procedures given below, mice are acclimatized to the experimental setting. Pre-Treatment control values are determined for analgesia hot plate latency (in seconds), rectal temperature, sedation and catalepsy.
In order to determine the agonistic activty of the substance to be tested, the mice are injected intravenously with the substance to be tested or the vehicle alone. 15 minutes after injection, latency in hot plate analgesia is measured. Rectal temperature, sedation and catalepsy are measured 20 minutes after injection.
(§5) The hot plate analgesia is determined according to the method described in Woolfe D. et al. “The evaluation of analgesic action of pethidine hydrochloride (Demerol)”, J. Pharmacol. Exp. Ther. 80, 300-307, 1944.
(§6) The mice are placed on a hot plate (Harvard Analgesimeter) at 55±0.5° C. until they show a painful sensation by licking their paws or jumping and the time for these sensations to occur is recorded. This reading is considered the basal value (B). The maximum time limit the mice are allowed to remain on the hot plate in absence of any painful response is 40 seconds in order to prevent skin damage. This period is called the cut-off time (PC).
(§7) Fifteen minutes after the administration of the substance to be tested, the mice are again placed on the hot plate and the afore described procedure is repeated. This period is called the post-treatment reading (PT).
(§8) The degree of analgesia is calculated from the formula:
(§9) % MPE of Analgesia=(PT−B)/(PC−B)×100
(§10) Sedation and ataxia is determined according to the method described in Desmet L. K. C. et al. “Anticonvulsive properties of Cinarizine and Flunarizine in Rats and Mice”, Arzneim. -Forsch. (Frug Res) 25, 9, 1975.
(§11) The percentage of sedation is determined according to the formula:
(§12) % of sedation=arithmetic mean/3×100
(§13) Hypothermia is determined according to the method described in David R. Compton et. al. “In-vivo Characterization of a Specific Cannabinoid Receptor Antagonist (SR141716A) Inhibition of Tetrahydrocannbinol-induced Responses and Apparent Agonist Activity”, J. Pharmacol Exp Ther. 277, 2, 586-594, 1996.

[2] = In-vivo testing for antiobesic activity; settings: rats
[3] = In-vivo testing for antidepressant activity, water despair test
Protocol: The in-vivo testing for antidepressant activity of the inventive pyrazoline compounds in the water despair test was carried out as described above.

cannabinoid receptors [4] = assay: Mouse tetrad model, antagonistic effect against Win 55212-2; format: in vivo, mice; settings: 5 mg/kg i.v. prior to Win 55212-2 in a dose of 1.25 mg/kg i.v.; for Antagonistic effect A: Hot-Plate test / Antagonistic effect B: Hypothermia: unit assumed
Text: as §1, §2, §3, §4
In order to determine the antagonistic activity the identical procedure is used as for the determination of the agonistic effects, but with the difference that the substance to be evaluated for its antagonistic activity is injectected 5 minutes before the intravenous injection of 1.25 mg/kg Win-55,212 a known cannabinoid-receptor agonist.
as §5, §6, §7, §8, §9, §10, §11, §12, §13

CB2-Receptor = molecular target: T1, CB2-Receptor (Homo sapiens, UniProt P34972); assay: In-vitro determination of affinity to CB2-receptor, radioligand [3H]-CP55940; format: binding
T1 construct: purchased Receptor Biology, Inc
T1 sequence (P34972 whole entry): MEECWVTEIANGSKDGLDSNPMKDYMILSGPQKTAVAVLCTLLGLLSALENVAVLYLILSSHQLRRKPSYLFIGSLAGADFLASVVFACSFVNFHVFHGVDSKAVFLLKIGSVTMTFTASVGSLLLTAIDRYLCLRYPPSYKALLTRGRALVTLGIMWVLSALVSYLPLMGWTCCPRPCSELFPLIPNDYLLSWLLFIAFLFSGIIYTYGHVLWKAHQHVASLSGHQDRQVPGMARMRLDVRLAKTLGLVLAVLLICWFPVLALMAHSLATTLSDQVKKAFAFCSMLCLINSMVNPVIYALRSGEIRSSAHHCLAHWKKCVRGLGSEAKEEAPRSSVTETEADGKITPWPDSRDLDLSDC
Protocol: Brockie et al., “Agonist-inverse agonist characterization at CB1 and CB2 cannabinoid receptors of L-759633, L759656 and AM630”, British Journal of Pharmacology, 126, 665-672, (1999), whereby the transfected human CB1 and CB2 receptors of Receptor Biology, Inc. are used. The radioligand used for both receptors is [^3H]-CP55940.
The affinity of the inventive substituted pyrazoline compounds to CB1/CB2 receptors was determined as described above.

Work on `O=C(Nn1cnnc1)C1=NN(c2ccc(Cl)cc2Cl)C(c2ccc(Cl)cc2)C1` (stereo not shown) yielded a melting point of 134 to 138 °C.
`CN1CCN(NC(=O)C2=NN(c3ccc(Cl)cc3Cl)C(c3ccc(Cl)cc3)C2)CC1.Cl` (stereo not shown) gave a melting point of 150 to 155 °C.
For `O=C(NN1CCCCC1)C1=NN(c2ccc(Cl)cc2Cl)C(c2ccc(Cl)cc2)C1` (stereo not shown) [Example 1, N-piperidinyl-5-(4-chlorophenyl)-1-(2,4-dichlorophenyl)-4,5-dihydro-1H-pyrazole-3-carboxamide], the Agonistic effect A: Hot-Plate test (cannabinoid receptors [1]) was 0%, the Agonistic effect C: Catalepsy (cannabinoid receptors [1]) was 0% and the “Agonistic effect D: Sedation” value (cannabinoid receptors [1]) was 0. For the same compound, the Agonistic effect B: Hypothermia (cannabinoid receptors [1]) was 0%, the body weight ([2]; 10 mg/kg intraperitoneally daily over 14 days, FIG. 1) was “lowered” and the food intake ([2]; 10 mg/kg intraperitoneally daily over 14 days, FIG. 2) was “reduction of food intake”. For the same compound, the “body weight effect after the treatment is ended” value ([2]; after end of 14 days of 10 mg/kg i.p. daily, FIG. 1) was “also observed after the treatment is ended”, the immobility time [3] was “positive effects” and the struggling time [3] was “positive effects”. The Antagonistic effect C: Catalepsy (cannabinoid receptors [4]) was 100%, the Antagonistic effect D: Sedation (cannabinoid receptors [4]) was 100% and the Antagonistic effect A: Hot-Plate test (cannabinoid receptors [4]) was 74%. The Antagonistic effect B: Hypothermia (cannabinoid receptors [4]) was 100%.
In the case of `O=C(C1=NN(c2ccc(Cl)cc2Cl)C(c2ccc(Cl)cc2)C1)N1CCCCC1` (stereo not shown) [Example 5, [5-(4-Chloro-phenyl)-1-(2,4-dichloro-phenyl)-4,5-dihydro-1H-pyrazol-3-yl]-piperidin-1-yl-methanone], the Agonistic effect A: Hot-Plate test (cannabinoid receptors [1]) is reported as 0%, the Agonistic effect C: Catalepsy (cannabinoid receptors [1]) is reported as 0% and the “Agonistic effect D: Sedation” value (cannabinoid receptors [1]) is reported as 0. It also gave an Agonistic effect B: Hypothermia (cannabinoid receptors [1]) of 50%, a Ki (CB2-Receptor) of roughly 1 µM and a melting point of 105 to 110 °C. For the same compound, the Antagonistic effect C: Catalepsy (cannabinoid receptors [4]) was 20%, the Antagonistic effect D: Sedation (cannabinoid receptors [4]) was 20% and the Antagonistic effect A: Hot-Plate test (cannabinoid receptors [4]) was 50%. The Antagonistic effect B: Hypothermia (cannabinoid receptors [4]) was 40%.
